Measured values reported in article PMC11208427, “Magnesium enhances aurintricarboxylic acid’s inhibitory action on the plasma membrane Ca^2+-ATPase” (Scientific Reports, 2024).

Molecular target: T1, plasma membrane Ca2+-ATPase (PMCA), 90% PMCA4b (Homo sapiens, UniProt P23634)
T1 construct: gene ATP2B4
Experiment: fluorescence of ATA bound to purified PMCA and quenching of intrinsic Trp fluorescence; also Ca2+-ATPase inhibition (Ki […])
Assay type: binding

T1 sequence (P23634 1-1205 isoform P23634-6): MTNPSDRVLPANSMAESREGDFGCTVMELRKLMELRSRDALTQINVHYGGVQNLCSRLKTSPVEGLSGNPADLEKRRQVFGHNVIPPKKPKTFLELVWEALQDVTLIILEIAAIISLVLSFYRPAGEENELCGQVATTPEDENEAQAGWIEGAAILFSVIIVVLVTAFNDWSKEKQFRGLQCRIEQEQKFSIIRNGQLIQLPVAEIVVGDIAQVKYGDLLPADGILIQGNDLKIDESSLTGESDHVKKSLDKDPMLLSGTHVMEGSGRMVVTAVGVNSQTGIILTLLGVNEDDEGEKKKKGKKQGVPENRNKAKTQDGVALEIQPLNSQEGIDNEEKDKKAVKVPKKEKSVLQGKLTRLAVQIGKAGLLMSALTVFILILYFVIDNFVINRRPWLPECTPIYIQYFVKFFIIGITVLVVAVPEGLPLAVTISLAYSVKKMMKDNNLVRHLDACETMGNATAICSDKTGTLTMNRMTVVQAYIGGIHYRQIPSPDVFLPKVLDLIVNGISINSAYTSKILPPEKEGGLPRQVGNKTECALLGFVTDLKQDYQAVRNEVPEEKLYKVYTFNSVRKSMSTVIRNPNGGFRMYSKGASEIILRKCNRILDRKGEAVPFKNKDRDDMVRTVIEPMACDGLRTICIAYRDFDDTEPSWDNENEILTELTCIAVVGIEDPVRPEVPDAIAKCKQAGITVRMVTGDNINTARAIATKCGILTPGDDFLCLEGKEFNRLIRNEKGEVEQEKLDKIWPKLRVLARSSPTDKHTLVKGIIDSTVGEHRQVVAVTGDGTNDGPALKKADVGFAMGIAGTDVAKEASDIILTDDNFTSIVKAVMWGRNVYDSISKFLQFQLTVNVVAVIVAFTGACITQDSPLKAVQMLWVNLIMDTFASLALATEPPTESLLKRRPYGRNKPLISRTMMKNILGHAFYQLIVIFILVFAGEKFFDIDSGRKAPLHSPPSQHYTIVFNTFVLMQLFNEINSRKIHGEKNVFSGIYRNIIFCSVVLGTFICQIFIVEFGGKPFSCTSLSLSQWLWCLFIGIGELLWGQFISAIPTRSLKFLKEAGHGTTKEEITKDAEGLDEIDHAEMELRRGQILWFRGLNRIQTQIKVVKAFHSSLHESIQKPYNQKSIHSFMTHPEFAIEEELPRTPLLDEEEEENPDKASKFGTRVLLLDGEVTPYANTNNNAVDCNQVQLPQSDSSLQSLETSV

- Kd: 160 nM
SMILES: O=C(O)C1=CC(=C(c2ccc(O)c(C(=O)O)c2)c2ccc(O)c(C(=O)O)c2)C=CC1=O [ATA, aurintricarboxylic acid]
